Results published in patent publication US9487516B2, “Antibacterial oxadiazolone derivatives” (priority 2013, dated 2016).
Values after ≈ are worked out from the molar mass of the structure shown.

Columns and labels:
Test in all cases: Bacterial growth minimal inhibitory concentration (microdilution, cation-adjusted Mueller-Hinton Broth)
Type in all cases: cell-based
[1] = test system: Staphylococcus aureus A798; details: multiply-resistant strain (in particular quinolone-resistant), read-out: MIC for S. aureus A798
Description: (§1) Minimal Inhibitory Concentrations (MICs; mg/L) were determined in cation-adjusted MuellerHinton Broth by a microdilution method following the description given in “Methods for Dilution Antimicrobial Susceptibility Tests for Bacteria that Grow Aerobically”, Approved standard, 7th ed., Clinical and Laboratory Standards Institute (CLSI) Document M7-A7, Wayne, Pa., USA, 2006.
(§2) All Example compounds were tested against several Gram positive and Gram negative bacteria. […] Staphylococcus aureus A798, Enterococcus faecium A949 and Acinetobacter baumanii T6474 are multiply-resistant strains (in particular quinolone-resistant), while Moraxella catarrhalis A894 is a quinolone-sensitive strain and Staphylococcus aureus ATCC29213 is a methicillin-sensitive and quinolone-sensitive strain.

[2] = test system: Enterococcus faecium A949; details: multiply-resistant strain (in particular quinolone-resistant), read-out: MIC for E. faecium A949
Description: as §1, §2

[3] = test system: Staphylococcus aureus ATCC29213; details: methicillin-sensitive and quinolone-sensitive strain, read-out: MIC for S. aureus ATCC29213
Description: as §1, §2

[4] = test system: Moraxella catarrhalis A894; details: quinolone-sensitive strain
Description: as §1, §2

[5] = test system: Acinetobacter baumanii T6474; details: Acinetobacter baumannii, multiply-resistant strain (in particular quinolone-resistant)
Description: as §1, §2

Structure (SMILES) | MIC [1] | MIC [2] | MIC [3] | MIC [4] | MIC [5]
O=C1CSc2ccc(-n3nc(CCCN[C@@H]4Cn5c(=O)cnc6ccc(F)c4c65)oc3=O)nc2N1 [Example 18, (S)-7-fluoro-6-{3-[5-oxo-4-(3-oxo-3,4-dihydro-2H-pyrido[3,2-b][1,4]-thiazin-6-yl)-4,5-dihydro-[1,3,4]oxadiazol-2-yl]-propylamino}-5,6-dihydro-pyrrolo[1,2,3-de]quinoxalin-3-one] | 0.063 µg/mL (≈ 0.127 µM) | 0.25 µg/mL (≈ 0.505 µM) | 0.031 µg/mL (≈ 0.0626 µM) | ≤ 0.016 µg/mL | 0.25 µg/mL (≈ 0.505 µM)
O=C1COc2ccc(-n3nc(CCCN[C@H]4Cn5c(=O)cnc6ccc(F)c4c65)oc3=O)cc2N1 [Example 13, (R)-7-fluoro-6-{3-[5-oxo-4-(3-oxo-3,4-dihydro-2H-benzo[1,4]oxazin-6-yl)-4,5-dihydro-[1,3,4]oxadiazol-2-yl]-propylamino}-5,6-dihydro-pyrrolo[1,2,3-de]quinoxalin-3-one] | 0.031 µg/mL (≈ 0.0648 µM) | 0.25 µg/mL (≈ 0.523 µM) | 0.031 µg/mL (≈ 0.0648 µM) | ≤ 0.016 µg/mL | 0.25 µg/mL (≈ 0.523 µM)
CCSc1ccc(-n2nc(CCCN[C@@H]3Cn4c(=O)cnc5ccc(F)c3c54)oc2=O)cc1 [Example 33, (S)-6-{3-[4-(4-ethylsulfanyl-phenyl)-5-oxo-4,5-dihydro-[1,3,4]oxadiazol-2-yl]-propylamino}-7-fluoro-5,6-dihydro-pyrrolo[1,2,3-de]quinoxalin-3-one] | 0.25 µg/mL (≈ 0.535 µM) | 0.5 µg/mL (≈ 1.07 µM) | 0.031 µg/mL (≈ 0.0663 µM) | 0.5 µg/mL (≈ 1.07 µM) | 0.25 µg/mL (≈ 0.535 µM)
O=c1oc(CCCN[C@H]2Cn3c(=O)cnc4ccc(F)c2c43)nn1-c1ccc2c(c1)OCCO2 [Example 25, (R)-6-{3-[4-(2,3-dihydro-benzo[1,4]dioxin-6-yl)-5-oxo-4,5-dihydro-[1,3,4]oxadiazol-2-yl]-propylamino}-7-fluoro-5,6-dihydro-pyrrolo[1,2,3-de]quinoxalin-3-one] | 4 µg/mL (≈ 8.59 µM) | 8 µg/mL (≈ 17.2 µM) | 2 µg/mL (≈ 4.3 µM) | 8 µg/mL (≈ 17.2 µM) | 8 µg/mL (≈ 17.2 µM)
O=c1oc(CCCN[C@@H]2Cn3c(=O)ccc4ccc(F)c2c43)nn1-c1ccc2c(c1)OCCO2 [Example 22, (S)-1-{3-[4-(2,3-dihydro-benzo[1,4]dioxin-6-yl)-5-oxo-4,5-dihydro-[1,3,4]oxadiazol-2-yl]-propylamino}-9-fluoro-1,2-dihydro-pyrrolo[3,2,1-ij]quinolin-4-one] | > 8 µg/mL | > 8 µg/mL | 4 µg/mL (≈ 8.61 µM) | 4 µg/mL (≈ 8.61 µM) | 8 µg/mL (≈ 17.2 µM)
CCOc1ccc(-n2nc(CCCN[C@H]3Cn4c(=O)cnc5ccc(F)c3c54)oc2=O)cc1 [Example 31, (R)-6-{3-[4-(4-ethoxy-phenyl)-5-oxo-4,5-dihydro-[1,3,4]oxadiazol-2-yl]-propylamino}-7-fluoro-5,6-dihydro-pyrrolo[1,2,3-de]quinoxalin-3-one] | 4 µg/mL (≈ 8.86 µM) | > 8 µg/mL | 1 µg/mL (≈ 2.22 µM) | 8 µg/mL (≈ 17.7 µM) | 8 µg/mL (≈ 17.7 µM)
O=C1CSc2ccc(-n3nc(CCCN[C@H]4Cn5c(=O)ccc6ccc(F)c4c65)oc3=O)nc2N1 [Example 14, (R)-9-fluoro-1-{3-[5-oxo-4-(3-oxo-3,4-dihydro-2H-pyrido[3,2-b][1,4]-thiazin-6-yl)-4,5-dihydro-[1,3,4]oxadiazol-2-yl]-propylamino}-1,2-dihydro-pyrrolo[3,2,1-ij]quinolin-4-one] | 0.031 µg/mL (≈ 0.0627 µM) | 0.25 µg/mL (≈ 0.506 µM) | ≤ 0.016 µg/mL | 0.031 µg/mL (≈ 0.0627 µM) | 0.25 µg/mL (≈ 0.506 µM)
O=C1COc2ccc(-n3nc(CCCN[C@@H]4Cn5c(=O)ccc6ncc(F)c4c65)oc3=O)nc2N1 [Example 37, (S)-3-fluoro-4-{3-[5-oxo-4-(3-oxo-3,4-dihydro-2H-pyrido[3,2-b][1,4]oxazin-6-yl)-4,5-dihydro-[1,3,4]oxadiazol-2-yl]-propylamino}-4,5-dihydro-pyrrolo[3,2,1-de][1,5]naphthyridin-7-one] | 0.25 µg/mL (≈ 0.521 µM) | 4 µg/mL (≈ 8.34 µM) | 0.25 µg/mL (≈ 0.521 µM) | 0.125 µg/mL (≈ 0.261 µM) | 2 µg/mL (≈ 4.17 µM)
CCOc1ccc(-n2nc(CCCN[C@@H]3Cn4c(=O)ccc5ccc(F)c3c54)oc2=O)cc1 [Example 28, (S)-1-{3-[4-(4-ethoxy-phenyl)-5-oxo-4,5-dihydro-[1,3,4]oxadiazol-2-yl]-propylamino}-9-fluoro-1,2-dihydro-pyrrolo[3,2,1-ij]quinolin-4-one] | 4 µg/mL (≈ 8.88 µM) | > 8 µg/mL | 2 µg/mL (≈ 4.44 µM) | 8 µg/mL (≈ 17.8 µM) | 4 µg/mL (≈ 8.88 µM)
O=C1COc2ccc(-n3nc(CCCN[C@H]4Cn5c(=O)cnc6ccc(F)c4c65)oc3=O)nc2N1 [Example 6, (R)-7-fluoro-6-{3-[5-oxo-4-(3-oxo-3,4-dihydro-2H-pyrido[3,2-b][1,4]oxazin-6-yl)-4,5-dihydro-[1,3,4]oxadiazol-2-yl]-propylamino}-5,6-dihydro-pyrrolo[1,2,3-de]quinoxalin-3-one] | 0.5 µg/mL (≈ 1.04 µM) | 2 µg/mL (≈ 4.17 µM) | 0.5 µg/mL (≈ 1.04 µM) | 0.5 µg/mL (≈ 1.04 µM) | 2 µg/mL (≈ 4.17 µM)
O=C1COc2ccc(-n3nc(CCCN[C@H]4Cn5c(=O)ccc6ccc(F)c4c65)oc3=O)cc2N1 [Example 12, (R)-9-fluoro-1-{3-[5-oxo-4-(3-oxo-3,4-dihydro-2H-benzo[1,4]oxazin-6-yl)-4,5-dihydro-[1,3,4]oxadiazol-2-yl]-propylamino}-1,2-dihydro-pyrrolo[3,2,1-ij]quinolin-4-one] | 0.031 µg/mL (≈ 0.0649 µM) | 0.25 µg/mL (≈ 0.524 µM) | 0.031 µg/mL (≈ 0.0649 µM) | ≤ 0.016 µg/mL | 0.25 µg/mL (≈ 0.524 µM)
O=C1COc2ccc(-n3nc(CCCN[C@@H]4Cn5c(=O)ccc6cccc4c65)oc3=O)nc2N1 [Example 34, (S)-1-{3-[5-oxo-4-(3-oxo-3,4-dihydro-2H-pyrido[3,2-b][1,4]oxazin-6-yl)-4,5-dihydro-[1,3,4]oxadiazol-2-yl]-propylamino}-1,2-dihydro-pyrrolo[3,2,1-ij]quinolin-4-one] | 4 µg/mL (≈ 8.69 µM) | 8 µg/mL (≈ 17.4 µM) | 2 µg/mL (≈ 4.34 µM) | 1 µg/mL (≈ 2.17 µM) | 4 µg/mL (≈ 8.69 µM)
CCCc1ccc(-n2nc(CCCN[C@H]3Cn4c(=O)cnc5ccc(F)c3c54)oc2=O)cc1 [Example 2, (R)-7-fluoro-6-{3-[5-oxo-4-(4-propyl-phenyl)-4,5-dihydro-[1,3,4]oxadiazol-2-yl]-propylamino}-5,6-dihydro-pyrrolo[1,2,3-de]quinoxalin-3-one] | 0.5 µg/mL (≈ 1.11 µM) | 1 µg/mL (≈ 2.22 µM) | 0.125 µg/mL (≈ 0.278 µM) | 2 µg/mL (≈ 4.45 µM) | > 8 µg/mL
O=c1oc(CCCN[C@@H]2Cn3c(=O)cnc4ccc(F)c2c43)nn1-c1ccc2c(c1)OCCO2 [Example 24, (S)-6-{3-[4-(2,3-dihydro-benzo[1,4]dioxin-6-yl)-5-oxo-4,5-dihydro-[1,3,4]oxadiazol-2-yl]-propylamino}-7-fluoro-5,6-dihydro-pyrrolo[1,2,3-de]quinoxalin-3-one] | 8 µg/mL (≈ 17.2 µM) | > 8 µg/mL | 2 µg/mL (≈ 4.3 µM) | 4 µg/mL (≈ 8.59 µM) | 4 µg/mL (≈ 8.59 µM)
COc1ccc2ccc(=O)n3c2c1[C@H](NCCCc1nn(-c2ccc4c(n2)NC(=O)CO4)c(=O)o1)C3 [Example 39, (S)-9-methoxy-1-{3-[5-oxo-4-(3-oxo-3,4-dihydro-2H-pyrido[3,2-b][1,4]oxazin-6-yl)-4,5-dihydro-[1,3,4]oxadiazol-2-yl]-propylamino}-1,2-dihydro-pyrrolo[3,2,1-ij]quinolin-4-one] | 2 µg/mL (≈ 4.08 µM) | 8 µg/mL (≈ 16.3 µM) | 1 µg/mL (≈ 2.04 µM) | 1 µg/mL (≈ 2.04 µM) | 1 µg/mL (≈ 2.04 µM)
O=C1CSc2ccc(-n3nc(CCCN[C@@H]4Cn5c(=O)ccc6ccc(F)c4c65)oc3=O)nc2N1 [Example 17, (S)-9-fluoro-1-{3-[5-oxo-4-(3-oxo-3,4-dihydro-2H-pyrido[3,2-b][1,4]-thiazin-6-yl)-4,5-dihydro-[1,3,4]oxadiazol-2-yl]-propylamino}-1,2-dihydro-pyrrolo[3,2,1-ij]quinolin-4-one] | 0.063 µg/mL (≈ 0.127 µM) | 0.25 µg/mL (≈ 0.506 µM) | 0.031 µg/mL (≈ 0.0627 µM) | 0.031 µg/mL (≈ 0.0627 µM) | 0.25 µg/mL (≈ 0.506 µM)
O=C1CSc2ccc(-n3nc(CCCN[C@H]4Cn5c(=O)ccc6ccc(F)c4c65)oc3=O)cc2N1 [Example 19, (R)-9-fluoro-1-{3-[5-oxo-4-(3-oxo-3,4-dihydro-2H-benzo[1,4]-thiazin-6-yl)-4,5-dihydro-[1,3,4]oxadiazol-2-yl]-propylamino}-1,2-dihydro-pyrrolo[3,2,1-ij]quinolin-4-one] | ≤ 0.016 µg/mL | 0.25 µg/mL (≈ 0.507 µM) | ≤ 0.016 µg/mL | 0.031 µg/mL (≈ 0.0628 µM) | ≤ 0.016 µg/mL
CCSc1ccc(-n2nc(CCCN[C@H]3Cn4c(=O)ccc5ccc(F)c3c54)oc2=O)cc1 [Example 32, (R)-1-{3-[4-(4-ethylsulfanyl-phenyl)-5-oxo-4,5-dihydro-[1,3,4]oxadiazol-2-yl]-propylamino}-9-fluoro-1,2-dihydro-pyrrolo[3,2,1-ij]quinolin-4-one] | 0.25 µg/mL (≈ 0.536 µM) | 0.5 µg/mL (≈ 1.07 µM) | 0.063 µg/mL (≈ 0.135 µM) | 0.5 µg/mL (≈ 1.07 µM) | 0.5 µg/mL (≈ 1.07 µM)
O=c1oc(CCCN[C@H]2Cn3c(=O)ccc4ccc(F)c2c43)nn1-c1ccc2c(c1)OCCO2 [Example 23, (R)-1-{3-[4-(2,3-dihydro-benzo[1,4]dioxin-6-yl)-5-oxo-4,5-dihydro-[1,3,4]oxadiazol-2-yl]-propylamino}-9-fluoro-1,2-dihydro-pyrrolo[3,2,1-ij]quinolin-4-one] | 8 µg/mL (≈ 17.2 µM) | > 8 µg/mL | 4 µg/mL (≈ 8.61 µM) | 4 µg/mL (≈ 8.61 µM) | > 8 µg/mL
